This is an account of results in ChEMBL document CHEMBL1201862, “PubChem BioAssay data set” (2004).

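A five-concentration, 48-hour dose response in 96-well plates underlies each endpoint, interpolated linearly between surrounding concentrations. The concentration for 50% growth inhibition is given as GI50.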 Active and inactive are the calls of the source. No stated cut-off is given here; in the data, active = GI50 up to about 1.1 µM and inactive = higher. Some results are limits rather than exact numbers.

Among the test systems are HT-29; A549; SK-MEL-28; DU-145; HL-60; UACC-62; SNB-19; M14; HOP-62; MDA-MB-231; ACHN; NCI-H23; NCI-H522; KM12; K562; RPMI-8226; IGROV-1; 786-0; COLO 205; SR.
What all share (test): NCI-60 cell line screen, 48 h

On to `O=C(O)c1ccccc1-c1ccccc1C(=O)Nc1ccc2c(c1)nc(O)c1ccccc12`, for which the GI50 was > 100 µM (inactive) in the assay on HT-29; > 100 µM (inactive) in the assay with A549; > 100 µM (inactive) with SK-MEL-28; > 100 µM (inactive) in the assay with DU-145; 94.8 µM (inactive) in the assay on HL-60; 59.6 µM (inactive) in the assay on UACC-62. The GI50 with SNB-19 was 83.4 µM (inactive); in the assay on M14, > 100 µM (inactive); in the assay on HOP-62, > 100 µM (inactive); in the assay on MDA-MB-231, 88.9 µM (inactive); in the assay with ACHN, > 100 µM (inactive); with NCI-H23, > 100 µM (inactive). Moreover, the GI50 with NCI-H522 is 61.8 µM (inactive); in the assay with KM12, > 100 µM (inactive); in the assay on K562, 39.6 µM (inactive); with RPMI-8226, > 100 µM (inactive); with IGROV-1 it was 94.4 µM (inactive); in the assay with 786-0 it was > 100 µM (inactive). Also, the GI50 in the assay on COLO 205 was > 100 µM (inactive).

Turning to `C1CNCCN2CCCNCCN(C1)CC2`, the GI50 in the assay with HT-29, in the assay with SR, with A549, in the assay with SK-MEL-28, in the assay with DU-145 and in the assay on UACC-62 was > 100 µM (inactive) each time. Besides, the GI50 with SNB-19, with M14, in the assay on HOP-62, with MDA-MB-231, in the assay on ACHN and in the assay on NCI-H23 was > 100 µM (inactive) in each case. In addition, the GI50 in the assay on NCI-H522, with KM12, with RPMI-8226, with IGROV-1, in the assay with 786-0 and with COLO 205 was > 100 µM (inactive) each time.

Consider `Cc1cc(Cc2cc(C)c(N)cc2N)c(N)cc1N`, for which the GI50 with HT-29, in the assay with A549, with SK-MEL-28, with DU-145, with HL-60 and in the assay with UACC-62 was > 100 µM (inactive) each time. The GI50 is > 100 µM (inactive) in the assay on SNB-19; > 100 µM (inactive) with M14; 93.5 µM (inactive) with HOP-62; > 100 µM (inactive) in the assay with MDA-MB-231; > 100 µM (inactive) in the assay with ACHN; 28.2 µM (inactive) with NCI-H23. In addition, the GI50 in the assay with NCI-H522 was 88.9 µM (inactive); in the assay with KM12 it was 85.5 µM (inactive); in the assay on K562 it was > 100 µM (inactive); with RPMI-8226, > 100 µM (inactive); in the assay on IGROV-1, 4.38 µM (inactive); in the assay on 786-0 it was > 100 µM (inactive). The GI50 in the assay with COLO 205 was > 100 µM (inactive).

Regarding `O=C(O)/C(=C\c1ccc(O)cc1)c1cccc2ccccc12`, the GI50 in the assay with HT-29, in the assay on SR, in the assay on A549, with SK-MEL-28, with DU-145 and in the assay on UACC-62 was > 100 µM (inactive) throughout. For the same compound, the GI50 in the assay on SNB-19 was > 100 µM (inactive); with M14 it was > 100 µM (inactive); in the assay with HOP-62, 35 µM (inactive); with MDA-MB-231, > 100 µM (inactive); in the assay with ACHN it was > 100 µM (inactive); with NCI-H23, > 100 µM (inactive). The GI50 in the assay with NCI-H522, in the assay on KM12, in the assay with K562, with IGROV-1 and in the assay on 786-0 was > 100 µM (inactive) in each case.

In the case of `CC(C)OC(=O)/C=C/C(=O)O/C=C/[N+](=O)[O-]`, the GI50 with HT-29 was 24.5 µM (inactive); in the assay with SR, 24.4 µM (inactive); in the assay with A549, 26.9 µM (inactive); in the assay with SK-MEL-28 it was 26.7 µM (inactive); with DU-145, 30.4 µM (inactive); in the assay with UACC-62, 21.3 µM (inactive). Further, the GI50 with SNB-19 is 31.7 µM (inactive); in the assay on M14, 30 µM (inactive); in the assay with HOP-62, 34 µM (inactive); in the assay with MDA-MB-231, 36.5 µM (inactive); in the assay on ACHN, > 100 µM (inactive); in the assay with NCI-H23 it was 26.7 µM (inactive). The GI50 with KM12 is 21.5 µM (inactive); in the assay with K562, 7.64 µM (inactive); with RPMI-8226, 15.5 µM (inactive); in the assay on IGROV-1, 31.6 µM (inactive); in the assay with 786-0, 29.2 µM (inactive); in the assay on COLO 205, 16.6 µM (inactive).

`O=Cc1c(-c2ccccc2)nc2ccccc2c1O`: the GI50 with HT-29 is 39.9 µM (inactive); with SR, < 0.01 µM (active); with A549, 54 µM (inactive); in the assay with SK-MEL-28 it was > 100 µM (inactive); in the assay on DU-145, > 100 µM (inactive); in the assay on UACC-62, 55.8 µM (inactive). Also, the GI50 with SNB-19 is > 100 µM (inactive); in the assay on M14 it was 68.2 µM (inactive); in the assay on HOP-62 it was 92.7 µM (inactive); in the assay on MDA-MB-231, 64.6 µM (inactive); with ACHN, > 100 µM (inactive); with NCI-H23, 75.7 µM (inactive). Further, the GI50 with NCI-H522 is 50.8 µM (inactive); in the assay on KM12 it was 30.3 µM (inactive); with RPMI-8226 it was 34.7 µM (inactive); in the assay on IGROV-1, 53.8 µM (inactive); with 786-0, 49.2 µM (inactive); in the assay with COLO 205, 26.7 µM (inactive).

For the compound `CN[C@H]1CC[C@]23C[C@]24CC[C@]2(C)[C@@H]([C@H](C)N(C)C)CC[C@@]2(C)[C@@H]4CC[C@H]3C1(C)C`, the GI50 in the assay on HT-29 is 2.85 µM (inactive); in the assay with A549, 17.4 µM (inactive); with SK-MEL-28, 12.4 µM (inactive); in the assay on DU-145 it was 14.4 µM (inactive); in the assay with HL-60, 10.8 µM (inactive); in the assay with UACC-62, 15.8 µM (inactive). Besides, the GI50 in the assay on SNB-19 was 16.7 µM (inactive); in the assay with M14, 12.2 µM (inactive); in the assay with MDA-MB-231 it was 21.1 µM (inactive); in the assay on ACHN, 15.6 µM (inactive); in the assay with NCI-H23 it was 15.7 µM (inactive); in the assay on NCI-H522, 17.2 µM (inactive). The GI50 in the assay on KM12 was 15 µM (inactive); in the assay on RPMI-8226 it was 12.9 µM (inactive); with IGROV-1, 16.8 µM (inactive); in the assay with 786-0, 6.78 µM (inactive); in the assay on COLO 205, 12.1 µM (inactive).

In the case of `O=S(=O)(O)c1cccc2ccc(O)c(/N=N\c3ccc(S(=O)(=O)c4ccc(/N=N/c5c(O)ccc6cccc(S(=O)(=O)O)c56)cc4)cc3)c12`, the GI50 in the assay on HT-29 is > 100 µM (inactive); with A549, > 100 µM (inactive); with SK-MEL-28, > 100 µM (inactive); in the assay with DU-145 it was > 100 µM (inactive); in the assay on HL-60 it was < 0.01 µM (active); with UACC-62, > 100 µM (inactive). Further, the GI50 with SNB-19, in the assay with M14, in the assay on HOP-62, in the assay on MDA-MB-231, with ACHN and in the assay on NCI-H23 was > 100 µM (inactive) in each case. In addition, the GI50 with NCI-H522 was > 100 µM (inactive); in the assay on KM12, 67.3 µM (inactive); in the assay with K562, 50.4 µM (inactive); in the assay with RPMI-8226, > 100 µM (inactive); in the assay with IGROV-1, 81.5 µM (inactive); in the assay with 786-0 it was > 100 µM (inactive). The GI50 in the assay with COLO 205 was > 100 µM (inactive).

Consider `Cc1nc2n(c1/C=C1/C(=O)Nc3ccccc31)CCS2`, for which the GI50 in the assay with HT-29 was 38.4 µM (inactive); with A549, 51.9 µM (inactive); with SK-MEL-28, 78 µM (inactive); in the assay on DU-145, 53.8 µM (inactive); in the assay on HL-60, 32.1 µM (inactive); with UACC-62, 24.2 µM (inactive). Also, the GI50 was > 100 µM (inactive) in the assay on SNB-19; 67.5 µM (inactive) in the assay with M14; > 100 µM (inactive) in the assay on HOP-62; 32.7 µM (inactive) with MDA-MB-231; 75.3 µM (inactive) in the assay on ACHN; 47 µM (inactive) in the assay with NCI-H23. In addition, the GI50 in the assay with NCI-H522 is 34.5 µM (inactive); with KM12, 31.1 µM (inactive); in the assay on K562, 33.3 µM (inactive); with RPMI-8226 it was 47.1 µM (inactive); with IGROV-1 it was 91 µM (inactive); with 786-0, 64.1 µM (inactive). Further, the GI50 in the assay on COLO 205 was 20.2 µM (inactive).

On to `Cc1nc(Nc2ccccc2Cl)sc1C(=O)CC(=O)C(N)=O`, for which the GI50 was 18.8 µM (inactive) in the assay on HT-29; 41.8 µM (inactive) in the assay with A549; > 100 µM (inactive) in the assay on DU-145; 11.8 µM (inactive) in the assay with HL-60; 35.1 µM (inactive) in the assay with UACC-62; 41 µM (inactive) with SNB-19. Besides, the GI50 with M14 is 75.3 µM (inactive); in the assay with HOP-62 it was > 100 µM (inactive); in the assay on MDA-MB-231 it was 57.4 µM (inactive); in the assay with ACHN, 32.7 µM (inactive); in the assay with NCI-H23 it was 28.2 µM (inactive); in the assay on NCI-H522 it was 1.96 µM (inactive). The GI50 is 13.2 µM (inactive) in the assay with KM12; 33.4 µM (inactive) in the assay on K562; 26.3 µM (inactive) with RPMI-8226; 39.3 µM (inactive) in the assay on IGROV-1; 58.9 µM (inactive) in the assay on 786-0; 21.2 µM (inactive) in the assay with COLO 205.

`COc1cc(/C=C/C(=O)CC(=O)/C=C/c2ccc(OC(=O)CCCCC3CCSS3)c(OC)c2)ccc1OC(=O)CCCCC1CCSS1` (stereo unspecified): the GI50 with HT-29, with A549, with SK-MEL-28, with DU-145, in the assay with HL-60 and in the assay with UACC-62 was > 100 µM (inactive) each time. Further, the GI50 in the assay with SNB-19, in the assay with M14, in the assay on HOP-62, with MDA-MB-231, in the assay with ACHN and in the assay with NCI-H23 was > 100 µM (inactive) in each case. For the same compound, the GI50 in the assay with NCI-H522, in the assay on KM12, in the assay with K562, in the assay on RPMI-8226, in the assay with IGROV-1 and in the assay with 786-0 was > 100 µM (inactive) throughout. For the same compound, in the assay on COLO 205, the GI50 was > 100 µM (inactive).
